How the values were obtained:
[1] = system: CCRF-CEM; assay: panel of 60 human tumor cell lines, growth inhibition (Leukemia); settings: Homo sapiens; for GI50: NCI five dose; for CC50: read-out: LC50; for IC (TGI): read-out: TGI
[2] = system: SK-MEL-28; assay: panel of 60 human tumor cell lines, growth inhibition (Melanoma); settings: Homo sapiens; for GI50: SK-MEL-28; for CC50: SK-MEL-28, read-out: LC50; for IC (TGI): SK-MEL-28, read-out: TGI
[3] = system: UACC-62; assay: as above; settings: Homo sapiens; for GI50: UACC-62; for CC50: UACC-62, read-out: LC50; for IC (TGI): UACC-62, read-out: TGI
[4] = system: SNB-19; assay: panel of 60 human tumor cell lines, growth inhibition (CNS Cancer); settings: Homo sapiens; for GI50: SNB-19; for CC50: SNB-19, read-out: LC50; for IC (TGI): SNB-19, read-out: TGI
[5] = system: SNB-75; assay: as above; settings: Homo sapiens; for GI50: SNB-75; for CC50: SNB-75, read-out: LC50; for IC (TGI): SNB-75, read-out: TGI
[6] = system: HCC-2998; assay: panel of 60 human tumor cell lines, growth inhibition (Colon Cancer); settings: Homo sapiens; for GI50: HCC 2998; for CC50: HCC 2998, read-out: LC50; for IC (TGI): HCC 2998, read-out: TGI
[7] = system: HCT-116; assay: as above; settings: Homo sapiens; for GI50: HCT-116, HCT-116, NCI five dose; for CC50: HCT-116, read-out: LC50; for IC (TGI): HCT-116, read-out: TGI
[8] = system: 786-0; assay: panel of 60 human tumor cell lines, growth inhibition (Renal Cancer); settings: Homo sapiens; for GI50: 786-0; for CC50: 786-0, read-out: LC50; for IC (TGI): 786-0, read-out: TGI
[9] = system: A498; assay: as above; settings: Homo sapiens; for GI50: A498; for CC50: A498, read-out: LC50; for IC (TGI): A498, read-out: TGI
[10] = system: RXF 393; assay: as above; settings: Homo sapiens; for GI50: RXF 393, RXF 393, NCI five dose; for CC50: RXF 393, read-out: LC50; for IC (TGI): RXF 393, read-out: TGI
[11] = system: UO-31; assay: as above; settings: Homo sapiens; for GI50: UO-31; for CC50: UO-31, read-out: LC50; for IC (TGI): UO-31, read-out: TGI
[12] = system: T-47D; assay: panel of 60 human tumor cell lines, growth inhibition (Breast Cancer); settings: Homo sapiens, T47D; for CC50: read-out: LC50; for IC (TGI): read-out: TGI
[13] = system: OVCAR-5; assay: panel of 60 human tumor cell lines, growth inhibition (Ovarian Cancer); settings: Homo sapiens; for GI50: OVCAR-5; for CC50: OVCAR-5, read-out: LC50; for IC (TGI): OVCAR-5, read-out: TGI
[14] = system: NCI/ADR-RES; assay: as above; settings: Homo sapiens; for CC50: read-out: LC50; for IC (TGI): read-out: TGI
[15] = system: SK-OV-3; assay: as above; settings: Homo sapiens; for GI50: SK-OV-3; for CC50: SK-OV-3, read-out: LC50; for IC (TGI): SK-OV-3, read-out: TGI
[16] = system: DU-145; assay: panel of 60 human tumor cell lines, growth inhibition (Prostate Cancer); settings: Homo sapiens; for GI50: DU-145; for CC50: DU-145, read-out: LC50; for IC (TGI): DU-145, read-out: TGI
[17] = system: NCI-H23; assay: panel of 60 human tumor cell lines, growth inhibition (Non-Small Cell Lung Cancer); settings: Homo sapiens; for GI50: NCI-H23; for CC50: NCI-H23, read-out: LC50; for IC (TGI): NCI-H23, read-out: TGI
[18] = system: NCI-H522; assay: as above; settings: Homo sapiens; for GI50: NCI-H522; for CC50: NCI-H522, read-out: LC50; for IC (TGI): NCI-H522, read-out: TGI

## C=C1C(=O)O[C@H]2[C@H]1CC/C(COC(=O)NCCCCCCO)=C\CC[C@@]1(C)O[C@@H]21 [JVM 2-31]
[1]
  GI50: 2.78 µM
  CC50: > 100 µM
  IC (TGI): 10.7 µM
[2]
  GI50: 5.21 µM
  CC50: 43.7 µM
  IC (TGI): 18.1 µM
[3]
  GI50: 6.78 µM
  CC50: 53.4 µM
  IC (TGI): 21.4 µM
[4]
  GI50: 16.7 µM
  CC50: > 100 µM
  IC (TGI): 51.3 µM
[5]
  GI50: 5.84 µM
  CC50: 45.6 µM
  IC (TGI): 20.1 µM
[6]
  GI50: 15.6 µM
  CC50: 61.9 µM
  IC (TGI): 31.1 µM
[7]
  GI50: 2.78 µM
  CC50: 34 µM
  IC (TGI): 11 µM
[8]
  GI50: 2.99 µM
  CC50: 43.7 µM
  IC (TGI): 13.1 µM
[9]
  GI50: 12.5 µM
  CC50: 53.4 µM
  IC (TGI): 25.9 µM
[10]
  GI50: 1.24 µM
  CC50: 40.2 µM
  IC (TGI): 9.75 µM
[11]
  GI50: 5.91 µM
  CC50: 62.6 µM
  IC (TGI): 21.2 µM
[12]
  GI50: 2.78 µM
  CC50: 87.9 µM
  IC (TGI): 10 µM
[13]
  GI50: 13.4 µM
  CC50: 64.1 µM
  IC (TGI): 29.3 µM
[14]
  GI50: 28.1 µM
  CC50: > 100 µM
  IC (TGI): > 100 µM
[15]
  GI50: 28.6 µM
  CC50: > 100 µM
  IC (TGI): 69.9 µM
[16]
  GI50: 3.68 µM
  CC50: 39.4 µM
  IC (TGI): 14.3 µM
[17]
  GI50: 13.5 µM
  CC50: 72 µM
  IC (TGI): 31.1 µM
[18]
  GI50: 1.7 µM
  CC50: 8.15 µM
  IC (TGI): 3.72 µM

## C=C1C(=O)O[C@H]2[C@H]1CC/C(COC(=O)OCCN(C)C)=C\CC[C@@]1(C)O[C@@H]21 [JVM 2-35]
[1]
  GI50: 2.1 µM
  CC50: > 100 µM
  IC (TGI): 6.14 µM
[2]
  GI50: 4.27 µM
  CC50: 48.3 µM
  IC (TGI): 17.9 µM
[3]
  GI50: 6.13 µM
  CC50: 46.6 µM
  IC (TGI): 19.9 µM
[4]
  GI50: 18.6 µM
  CC50: > 100 µM
  IC (TGI): 62 µM
[5]
  GI50: 4.96 µM
  CC50: 50.7 µM
  IC (TGI): 21.5 µM
[6]
  GI50: 15.8 µM
  CC50: 61.9 µM
  IC (TGI): 31.3 µM
[7]
  GI50: 2.66 µM
  CC50: 33.6 µM
  IC (TGI): 11.3 µM
[8]
  GI50: 2.75 µM
  CC50: 37.3 µM
  IC (TGI): 12.1 µM
[9]
  GI50: 13.3 µM
  CC50: 56.6 µM
  IC (TGI): 27.4 µM
[10]
  GI50: 3.23 µM
  CC50: 45.8 µM
  IC (TGI): 13.7 µM
[11]
  GI50: 4.58 µM
  CC50: 48.3 µM
  IC (TGI): 18.6 µM
[12]
  GI50: 2.95 µM
  CC50: 58.8 µM
  IC (TGI): 12.4 µM
[13]
  GI50: 13.1 µM
  CC50: 57 µM
  IC (TGI): 27.3 µM
[14]
  GI50: 23.7 µM
  CC50: > 100 µM
  IC (TGI): 84.6 µM
[15]
  GI50: 27.5 µM
  CC50: > 100 µM
  IC (TGI): 83.3 µM
[16]
  GI50: 3.59 µM
  CC50: 37.7 µM
  IC (TGI): 13.2 µM
[17]
  GI50: 16 µM
  CC50: 91 µM
  IC (TGI): 38.2 µM
[18]
  GI50: 1.5 µM
  CC50: 9.57 µM
  IC (TGI): 3.79 µM

## C=C1C(=O)O[C@H]2[C@H]1CC/C(COC(=O)OC)=C\CC[C@@]1(C)O[C@@H]21 [JVM 2-40]
[1]
  GI50: 1.49 µM
  CC50: 98 µM
  IC (TGI): 6.04 µM
[2]
  GI50: 3.59 µM
  CC50: 44.8 µM
  IC (TGI): 16 µM
[3]
  GI50: 5.93 µM
  CC50: 46.2 µM
  IC (TGI): 19.5 µM
[4]
  GI50: 13.5 µM
  CC50: 59.1 µM
  IC (TGI): 28.2 µM
[5]
  GI50: 2.69 µM
  CC50: 42.5 µM
  IC (TGI): 17.9 µM
[6]
  GI50: 13.8 µM
  CC50: 56.8 µM
  IC (TGI): 28 µM
[7]
  GI50: 2.24 µM
  CC50: 33.2 µM
  IC (TGI): 11 µM
[8]
  GI50: 3.29 µM
  CC50: 48.5 µM
  IC (TGI): 14.4 µM
[9]
  GI50: 10.9 µM
  CC50: 49 µM
  IC (TGI): 23.1 µM
[10]
  GI50: 1.68 µM
  CC50: 31.7 µM
  IC (TGI): 6.85 µM
[11]
  GI50: 3.21 µM
  CC50: 42.1 µM
  IC (TGI): 14.2 µM
[12]
  GI50: 2.7 µM
  CC50: 61.3 µM
  IC (TGI): 12.5 µM
[13]
  GI50: 5.31 µM
  CC50: 47 µM
  IC (TGI): 19.5 µM
[14]
  GI50: 17.2 µM
  CC50: > 100 µM
  IC (TGI): 49.2 µM
[15]
  GI50: 22.7 µM
  CC50: > 100 µM
  IC (TGI): 59.7 µM
[16]
  GI50: 3.35 µM
  CC50: 37.7 µM
  IC (TGI): 14 µM
[17]
  GI50: 13 µM
  CC50: 85.2 µM
  IC (TGI): 33.3 µM
[18]
  GI50: 1.07 µM
  CC50: 5.82 µM
  IC (TGI): 2.5 µM

Reference: patent US9469650B2, “Melampomagnolide B derivatives” (BOARD OF TRUSTEES OF THE UNIVERSITY OF ARKANSAS, priority 2013, dated 2016)
